Test results reported in ChEMBL document CHEMBL1201862, “PubChem BioAssay data set” (2004).
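96-well plates; 48 h exposure; 5 concentrations. Endpoints by linear interpolation between flanking doses. Not reached: highest tested concentration assigned. GI50 = concentration required for 50% inhibition of growth.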 The source made the active and inactive calls. Rule as the data show it: active = GI50 up to about 1.1 µM and inactive = higher.

Columns and labels:
Test in all cases: growth of human tumour cells (NCI), 48 h
SK-MEL-2 = tested on: SK-MEL-2
RPMI-8226 = tested on: RPMI-8226
UO-31 = tested on: UO-31
HOP-62 = tested on: HOP-62
SNB-19 = tested on: SNB-19
786-0 = tested on: 786-0
K562 = tested on: K562
NCI-H226 = tested on: NCI-H226
UACC-62 = tested on: UACC-62
NCI-H460 = tested on: NCI-H460
Malme-3M = tested on: Malme-3M
SF-539 = tested on: SF-539
COLO 205 = tested on: COLO 205
CCRF-CEM = tested on: CCRF-CEM
MDA-N = tested on: MDA-N
OVCAR-5 = tested on: OVCAR-5
EKVX = tested on: EKVX
SN12C = tested on: SN12C
NCI/ADR-RES = tested on: NCI/ADR-RES
SF-295 = tested on: SF-295

| Compound | GI50 (SK-MEL-2) | GI50 (RPMI-8226) | GI50 (UO-31) | GI50 (HOP-62) | GI50 (SNB-19) | GI50 (786-0) | GI50 (K562) | GI50 (NCI-H226) | GI50 (UACC-62) | GI50 (NCI-H460) | GI50 (Malme-3M) | GI50 (SF-539) | GI50 (COLO 205) | GI50 (CCRF-CEM) | GI50 (MDA-N) | GI50 (OVCAR-5) | GI50 (EKVX) | GI50 (SN12C) | GI50 (NCI/ADR-RES) | GI50 (SF-295) |
| --- | --- | --- | --- | --- | --- | --- | --- | --- | --- | --- | --- | --- | --- | --- | --- | --- | --- | --- | --- | --- |
| CC(C)c1c(O[Si](C(C)C)(C(C)C)C(C)C)c2c3c(ccc4c3c1OC4(C)C)C(C)CC2 (stereo not given) | > 100000 nM (inactive) | > 100000 nM (inactive) | > 100000 nM (inactive) | > 100000 nM (inactive) | > 100000 nM (inactive) | > 100000 nM (inactive) | > 100000 nM (inactive) | > 100000 nM (inactive) | > 100000 nM (inactive) | > 100000 nM (inactive) | > 100000 nM (inactive) | > 100000 nM (inactive) | > 100000 nM (inactive) | > 100000 nM (inactive) | > 100000 nM (inactive) | > 100000 nM (inactive) | > 100000 nM (inactive) | > 100000 nM (inactive) | > 100000 nM (inactive) | > 100000 nM (inactive) |
| CC(C)(C)c1cc2c(OC/C=C/c3ccccc3)c(c1)Cc1cc(C(C#N)(OC/C=C/c3ccccc3)OC/C=C/c3ccccc3)cc(c1OC/C=C\c1ccccc1)Cc1cc(C(C)(C)C)cc(c1OC/C=C/c1ccccc1)Cc1cc(C(C#N)(OC/C=C\c3ccccc3)OC/C=C/c3ccccc3)cc(c1OC/C=C\c1ccccc1)C2 (stereo not given) | > 100000 nM (inactive) | > 100000 nM (inactive) | > 100000 nM (inactive) | > 100000 nM (inactive) | > 100000 nM (inactive) | > 100000 nM (inactive) | > 100000 nM (inactive) | > 100000 nM (inactive) | > 100000 nM (inactive) | > 100000 nM (inactive) | 83400 nM (inactive) | > 100000 nM (inactive) | > 100000 nM (inactive) | > 100000 nM (inactive) | > 100000 nM (inactive) | > 100000 nM (inactive) | > 100000 nM (inactive) | > 100000 nM (inactive) | > 100000 nM (inactive) | > 100000 nM (inactive) |
| CCCCCCCCCCCCCC(=O)OC(/C=C/C(C)C)C(O)C(O)C(OC)C(=O)NC1CCCCNC1=O (stereo not given) | 2650 nM (inactive) | 2790 nM (inactive) | 989 nM (active) | 1610 nM (inactive) | 815 nM (active) | 308 nM (active) | 627 nM (active) | 2390 nM (inactive) | 697 nM (active) | 90.6 nM (active) | 2020 nM (inactive) | 1380 nM (inactive) | 299 nM (active) | 587 nM (active) | 9040 nM (inactive) | 3650 nM (inactive) | 3820 nM (inactive) | 579 nM (active) | > 10000 nM (inactive) | 721 nM (active) |
| CC(=O)O[C@H]1C(=O)[C@@]2(C)[C@H]([C@H](OC(=O)c3ccc(F)cc3)[C@]3(O)C[C@H](OC(=O)[C@H](O)[C@@H](NC(=O)c4ccccc4)c4ccccc4)C(C)=C1C3(C)C)[C@]1(OC(C)=O)CO[C@@H]1C[C@@H]2O | 59.7 nM (active) | 5.92 nM (active) | 5920 nM (inactive) | 126 nM (active) | 30.6 nM (active) | 84 nM (active) | 8.59 nM (active) | 108 nM (active) | 19.9 nM (active) | 13.2 nM (active) | 12.7 nM (active) | 10.2 nM (active) | 10.8 nM (active) | 8.19 nM (active) | 2.5 nM (active) | 22.2 nM (active) | 2000 nM (inactive) | 528 nM (active) | 9840 nM (inactive) | 168 nM (active) |
| COc1ccc2nc3ccccc3c(NCCCCCN(CCCl)CCCl)c2c1 | 194 nM (active) | 31.7 nM (active) | 70.5 nM (active) | 77.6 nM (active) | 42.7 nM (active) | 21.8 nM (active) | 22.9 nM (active) | 101 nM (active) | 36 nM (active) | < 10 nM (active) | 524 nM (active) | 78.7 nM (active) | < 30.1 nM (active) | 15.1 nM (active) | 121 nM (active) | 207 nM (active) | 485 nM (active) | 28.3 nM (active) | 39.9 nM (active) | 25.5 nM (active) |
